Source: BindingDB's records for doi:10.1016/s0960-894x(02)00886-7 (National Institute of Radiological Sciences, 2002)

Assay: In vitro binding affinity for PBR (peripheral benzodiazepine receptor) in monkey brain

## COc1ccc(OC)c(CN(C(C)=O)c2cc(F)ccc2Oc2ccccc2)c1
  Ki: 0.188 nM
